One experiment concerns the target T1, His-FLAG-KDM6A (UTX) (Homo sapiens, UniProt O15550).
T1 construct: Full-length FLAG-KDM5B, FLAG-KDM5C, and His-FLAG-KDM6A production was detailed previously; His (N); FLAG (N); made in house
Put plainly: AlphaScreen KDM6A demethylation assay. The experiment is classed as biochemical. On the procedure: (§1) Histone demethylase assays were performed as described previously, with the exception of all enzyme reactions containing 125 μM α-KG. Enzymes were used at the following approximate concentrations in validation experiments, chosen based on their activity in AlphaScreen assays: 19 nM FLAG-KDM5A, 15 nM FLAG-KDM5B, 6 nM FLAG-KDM5C, 29 nM His-FLAG-KDM6A, and 16 nM FLAG-KDM6B. 24 nM FLAG-KDM5A was used for Km determination experiments. Reactions were carried out for 1 hour, or were stopped by addition of 30 mM EDTA every 5 minutes for determining enzyme kinetics. Km values were calculated using the Michaelis-Menten non-linear regression analysis on GraphPad Prism 6.0 software. The concentration of DMSO in demethylation reactions was 0.05%. For reactions with catalase, catalase (Sigma C30) or an equal volume of dilution buffer was added to the peptide-containing buffer before addition of the demethylase. The final concentration of catalase in the reactions was 0.01 mg/ml.
(§2) The AlphaScreen general IgG (protein A) detection kit from PerkinElmer Life Sciences was used as described previously. The luminescence emission was recorded at 570 nm using the AlphaScreen optic module on a Pherastar (BMG Labtech) or Envision (PerkinElmer Life Sciences) microplate reader.
For orientation: Alpha assays give light when donor and acceptor beads are brought close together.

A further experiment has as its target T2, full-length FLAG-KDM5A (Homo sapiens, UniProt P29375).
T2 construct: Sf21 insect cells were infected with baculovirus to express full-length FLAG-KDM5A; made in house; host or cells: Sf21 insect cells (baculovirus)
In words: AlphaScreen KDM5A demethylation assay. Type of experiment: biochemical. Particulars: for inhibition at 2 µM: 2 μM compound.
Description: AlphaScreen technology (PerkinElmer) was utilized to perform a screen for small molecule inhibitors of KDM5A. The assay was comprised of two steps, a demethylation reaction followed by detection of the product. A biotinylated H3K4me3 peptide was used as substrate in the demethylation reaction with KDM5A in the presence or absence of small molecule inhibitors. The presence of peptide product (H3K4me1/2) was detected using a product-specific antibody and beads. For this, acceptor beads coated in protein A bound to the antibody, which recognized the peptide product. Donor beads coated in streptavidin bound biotin on the peptide substrate. If the demethylation reaction occurred, the beads were in very close proximity and laser excitation of the donor beads at 680nm caused a transfer of energy in the form of reactive singlet oxygen, resulting in emission by the acceptor beads between 520–620 nm ([30, 31], Figure 1A). The luminescent signal detected was a proxy for the amount of demethylation that occurred.
Reactions were carried out for 1 hour, or were stopped by addition of 30 mM EDTA every 5 minutes for determining enzyme kinetics. Km values were calculated using the Michaelis-Menten non-linear regression analysis on GraphPad Prism 6.0 software. The concentration of DMSO in demethylation reactions was 0.05%. For reactions with catalase, catalase (Sigma C30) or an equal volume of dilution buffer was added to the peptide-containing buffer before addition of the demethylase. The final concentration of catalase in the reactions was 0.01 mg/ml.
as §2
IC50 values were calculated by log transformation and non-linear regression log(inhibitor) versus response(three parameters) using Graphpad Prism 6.0 software.

The subject of the next experiment is HeLa cells. Put plainly: WST-1 proliferation assay, HeLa. Type of experiment: cell-based, human. Particulars: after 3 days. The procedure: (§3) WST-1 reagent from Roche Applied Sciences (11644807001) was used to measure cell number before drug addition and after 3 or 5 days of growth as described previously. Cells were seeded in 96-well plates at the following number of cells per well: HeLa (2000), MCF7 (2000), ZR-75-1 (1000), MCF10A (1000), MDA-MB-231(5000). DMSO was used at 0.1%. Relative absorbance was calculated by subtracting the average background (media only) signal, dividing by the average signal on day 0, and then dividing by the average day 5/day 0 ratio for the DMSO controls. Significance was calculated by unpaired, two-tailed student's t-test using GraphPad Prism 6.0 software.
On the technique in general: Tetrazolium assays rely on reduction of a dye to a coloured formazan, in cell work by metabolically active cells.

In another experiment the test system is MCF10A cells. Put plainly: WST-1 proliferation assay, MCF10A. Type of experiment: cell-based, human. The following applies: 5 days of treatment. On the procedure:
as §3

In experiment [1] the test system is H3K4 methylation in ZR-75-1 cells. In words: Western blot of global H3K4 methylation, ZR-75-1. The following applies: ZR-75-1, 48 hour treatment. The experiment is classed as cell-based, human. On the procedure:
(§4) Cells were lysed as described previously. Histones were separated by centrifugation, resuspended in Laemmeli buffer, and sonicated. Protein concentration of cell lysates was measured by Bradford assay. Samples in Laemmeli buffer were boiled 10 minutes at 95°C and loaded onto 7% (whole cell lysates) or 18% (histones) SDS-PAGE gels. Membranes were blocked in 4% non-fat milk in Tris-buffered saline with 0.05% Tween (TBS-T) and incubated with primary antibodies in the same buffer or 5% bovine serum albumin in TBS-T overnight at 4°C. Membranes were incubated with secondary anti-rabbit or anti-mouse antibodies for one hour at room temperature. Blots were visualized by Thermo Scientific Pierce ECL Western Blotting Substrate (32106) or EMD Millipore Immobilon Western Chemiluminescent HRP Substrate (WBKLS0100) on film. Signal was quantified using ImageJ software.

Experiment [2] relates to H3K4 methylation in MDA-MB-231 cells. In words: Western blot of global H3K4 methylation, MDA-MB-231. Particulars: MDA-MB-231, 72 hr treatment. The experiment is classed as cell-based, human. The procedure:
as §4

The next experiment addresses T3, FLAG-KDM5C (Homo sapiens, UniProt P41229).
T3 construct: Full-length FLAG-KDM5B, FLAG-KDM5C, and His-FLAG-KDM6A production was detailed previously; FLAG (N); made in house
Put plainly: AlphaScreen KDM5C demethylation assay. The experiment is classed as biochemical. On the procedure: as §1, §2

A further experiment deals with ZR-75-1 cells. Put plainly: WST-1 proliferation assay, ZR-75-1. Type of experiment: cell-based, human. The following applies: ZR-75-1, 5 days of treatment. The procedure:
as §3

Here are results for one molecule from paper PMC5129982, “Screen-identified selective inhibitor of lysine demethylase 5A blocks cancer cell growth and drug resistance” (Oncotarget, 2016).

T2 sequence (P29375 whole entry): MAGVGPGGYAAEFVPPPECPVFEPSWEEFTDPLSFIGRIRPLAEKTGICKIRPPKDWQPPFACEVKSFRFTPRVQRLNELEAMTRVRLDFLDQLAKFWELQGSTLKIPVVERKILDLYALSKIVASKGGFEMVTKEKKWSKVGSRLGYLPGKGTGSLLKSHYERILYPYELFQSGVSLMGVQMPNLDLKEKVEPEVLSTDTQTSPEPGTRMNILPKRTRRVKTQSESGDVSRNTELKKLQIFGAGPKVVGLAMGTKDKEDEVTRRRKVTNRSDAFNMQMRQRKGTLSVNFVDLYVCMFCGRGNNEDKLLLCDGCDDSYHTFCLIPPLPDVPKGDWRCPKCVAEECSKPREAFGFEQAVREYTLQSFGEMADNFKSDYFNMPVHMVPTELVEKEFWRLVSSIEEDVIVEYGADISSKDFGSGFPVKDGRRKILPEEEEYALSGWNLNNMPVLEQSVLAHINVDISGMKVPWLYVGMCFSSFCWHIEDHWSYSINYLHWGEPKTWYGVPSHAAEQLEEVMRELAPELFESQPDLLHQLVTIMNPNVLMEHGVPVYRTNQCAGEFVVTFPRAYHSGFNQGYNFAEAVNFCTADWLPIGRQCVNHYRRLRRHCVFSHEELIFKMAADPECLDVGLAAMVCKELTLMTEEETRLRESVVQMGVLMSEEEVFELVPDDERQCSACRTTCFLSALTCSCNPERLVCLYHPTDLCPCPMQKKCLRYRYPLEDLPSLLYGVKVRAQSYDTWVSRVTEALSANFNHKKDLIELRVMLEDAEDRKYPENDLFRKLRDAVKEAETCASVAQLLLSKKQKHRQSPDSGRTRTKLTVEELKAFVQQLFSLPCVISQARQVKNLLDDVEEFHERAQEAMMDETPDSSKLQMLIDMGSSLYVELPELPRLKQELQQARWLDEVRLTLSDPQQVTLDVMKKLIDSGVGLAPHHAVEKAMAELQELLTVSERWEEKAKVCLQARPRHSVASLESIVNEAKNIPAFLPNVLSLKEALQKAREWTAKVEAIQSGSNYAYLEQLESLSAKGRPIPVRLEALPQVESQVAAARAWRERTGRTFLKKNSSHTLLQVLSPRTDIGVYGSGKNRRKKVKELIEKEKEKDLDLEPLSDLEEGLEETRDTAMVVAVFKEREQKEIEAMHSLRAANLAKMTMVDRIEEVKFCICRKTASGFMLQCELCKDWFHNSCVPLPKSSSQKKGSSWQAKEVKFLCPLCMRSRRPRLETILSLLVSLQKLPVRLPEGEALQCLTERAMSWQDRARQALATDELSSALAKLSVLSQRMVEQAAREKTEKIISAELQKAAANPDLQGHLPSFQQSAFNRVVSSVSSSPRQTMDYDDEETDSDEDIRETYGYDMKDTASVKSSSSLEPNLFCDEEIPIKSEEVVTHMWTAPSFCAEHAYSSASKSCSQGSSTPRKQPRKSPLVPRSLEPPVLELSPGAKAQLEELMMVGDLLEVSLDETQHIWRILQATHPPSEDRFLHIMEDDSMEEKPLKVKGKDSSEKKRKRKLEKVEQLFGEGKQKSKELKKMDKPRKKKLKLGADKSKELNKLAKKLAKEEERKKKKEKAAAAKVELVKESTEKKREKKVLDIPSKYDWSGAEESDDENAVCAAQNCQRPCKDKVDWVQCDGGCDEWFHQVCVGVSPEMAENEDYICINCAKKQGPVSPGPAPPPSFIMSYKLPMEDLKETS
T3 sequence (P41229 whole entry): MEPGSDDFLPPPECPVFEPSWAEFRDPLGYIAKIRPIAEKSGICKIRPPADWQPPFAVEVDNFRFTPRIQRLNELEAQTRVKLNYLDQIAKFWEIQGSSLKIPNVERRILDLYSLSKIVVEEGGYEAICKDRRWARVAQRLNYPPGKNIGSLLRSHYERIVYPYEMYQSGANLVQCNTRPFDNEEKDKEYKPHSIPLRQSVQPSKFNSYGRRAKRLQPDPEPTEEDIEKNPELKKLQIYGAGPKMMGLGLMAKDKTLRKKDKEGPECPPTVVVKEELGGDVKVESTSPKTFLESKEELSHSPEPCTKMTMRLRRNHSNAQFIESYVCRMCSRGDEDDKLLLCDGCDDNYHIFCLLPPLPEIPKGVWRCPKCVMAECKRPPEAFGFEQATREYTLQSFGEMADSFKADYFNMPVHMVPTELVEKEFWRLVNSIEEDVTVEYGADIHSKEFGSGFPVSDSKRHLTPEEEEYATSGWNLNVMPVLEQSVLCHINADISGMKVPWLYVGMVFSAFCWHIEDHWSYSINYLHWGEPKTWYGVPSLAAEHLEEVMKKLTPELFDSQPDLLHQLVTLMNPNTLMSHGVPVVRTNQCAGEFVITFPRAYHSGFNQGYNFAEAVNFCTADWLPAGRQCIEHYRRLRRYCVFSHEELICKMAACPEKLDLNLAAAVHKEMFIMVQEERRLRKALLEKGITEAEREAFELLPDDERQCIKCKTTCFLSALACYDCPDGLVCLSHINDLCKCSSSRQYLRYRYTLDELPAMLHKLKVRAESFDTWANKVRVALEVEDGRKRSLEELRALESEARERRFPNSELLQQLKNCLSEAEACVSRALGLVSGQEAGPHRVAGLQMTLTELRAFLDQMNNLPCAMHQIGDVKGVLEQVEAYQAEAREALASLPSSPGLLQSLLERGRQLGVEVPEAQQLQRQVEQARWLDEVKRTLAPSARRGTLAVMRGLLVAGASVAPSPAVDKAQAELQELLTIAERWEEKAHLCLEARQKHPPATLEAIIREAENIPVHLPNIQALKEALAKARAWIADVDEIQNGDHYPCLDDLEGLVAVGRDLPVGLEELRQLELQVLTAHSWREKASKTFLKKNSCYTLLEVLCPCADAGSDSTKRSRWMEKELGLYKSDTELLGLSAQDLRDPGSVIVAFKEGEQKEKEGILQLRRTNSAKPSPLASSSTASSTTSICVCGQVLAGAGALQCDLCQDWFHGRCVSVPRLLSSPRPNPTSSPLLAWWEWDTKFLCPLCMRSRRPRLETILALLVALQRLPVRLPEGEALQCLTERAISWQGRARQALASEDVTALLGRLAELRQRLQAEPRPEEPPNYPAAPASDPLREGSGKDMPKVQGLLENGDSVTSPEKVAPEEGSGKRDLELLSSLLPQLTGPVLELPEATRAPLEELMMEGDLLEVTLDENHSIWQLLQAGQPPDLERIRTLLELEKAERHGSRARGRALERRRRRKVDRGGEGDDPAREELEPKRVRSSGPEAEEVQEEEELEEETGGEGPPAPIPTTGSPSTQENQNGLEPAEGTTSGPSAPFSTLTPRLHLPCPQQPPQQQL
T1 sequence (O15550 whole entry): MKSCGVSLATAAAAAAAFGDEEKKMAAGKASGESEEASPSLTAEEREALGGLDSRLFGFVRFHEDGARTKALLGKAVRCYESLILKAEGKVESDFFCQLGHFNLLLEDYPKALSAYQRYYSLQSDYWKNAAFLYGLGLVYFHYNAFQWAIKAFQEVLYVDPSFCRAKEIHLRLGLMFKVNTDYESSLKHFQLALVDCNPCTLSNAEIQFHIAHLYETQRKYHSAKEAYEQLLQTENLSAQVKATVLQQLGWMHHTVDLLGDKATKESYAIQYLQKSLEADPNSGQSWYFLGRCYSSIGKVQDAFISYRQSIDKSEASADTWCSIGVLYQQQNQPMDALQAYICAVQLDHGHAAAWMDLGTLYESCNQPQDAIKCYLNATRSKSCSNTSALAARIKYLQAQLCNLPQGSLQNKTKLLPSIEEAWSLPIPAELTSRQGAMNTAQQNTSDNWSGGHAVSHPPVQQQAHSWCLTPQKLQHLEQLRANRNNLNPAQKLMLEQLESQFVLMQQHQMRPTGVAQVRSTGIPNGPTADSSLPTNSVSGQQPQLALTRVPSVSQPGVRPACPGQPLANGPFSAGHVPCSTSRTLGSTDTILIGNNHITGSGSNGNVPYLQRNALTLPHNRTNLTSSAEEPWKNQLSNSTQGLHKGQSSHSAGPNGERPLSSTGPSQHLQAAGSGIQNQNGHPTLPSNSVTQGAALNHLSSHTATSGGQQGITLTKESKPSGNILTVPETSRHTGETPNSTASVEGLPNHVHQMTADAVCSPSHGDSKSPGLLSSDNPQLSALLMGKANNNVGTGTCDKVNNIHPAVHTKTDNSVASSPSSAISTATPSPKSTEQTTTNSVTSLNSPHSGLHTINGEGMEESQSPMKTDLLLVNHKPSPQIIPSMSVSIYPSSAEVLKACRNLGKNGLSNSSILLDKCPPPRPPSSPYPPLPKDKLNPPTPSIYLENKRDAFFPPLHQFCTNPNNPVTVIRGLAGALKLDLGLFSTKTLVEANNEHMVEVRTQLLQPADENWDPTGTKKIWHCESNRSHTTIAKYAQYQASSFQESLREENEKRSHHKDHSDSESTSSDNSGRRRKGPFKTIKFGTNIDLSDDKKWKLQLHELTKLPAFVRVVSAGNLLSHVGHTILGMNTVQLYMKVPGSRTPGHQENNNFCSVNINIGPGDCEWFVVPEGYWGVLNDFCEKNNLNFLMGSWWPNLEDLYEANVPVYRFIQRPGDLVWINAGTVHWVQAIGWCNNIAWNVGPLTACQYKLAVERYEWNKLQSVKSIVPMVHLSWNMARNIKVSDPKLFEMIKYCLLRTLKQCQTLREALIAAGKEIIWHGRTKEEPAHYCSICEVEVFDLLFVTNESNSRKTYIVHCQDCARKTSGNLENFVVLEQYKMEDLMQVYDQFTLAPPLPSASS

As usually defined, the IC50 is the concentration needed to halve the response being measured. The low end stands for higher potency, the high end for lower potency. By inhibition is commonly meant the drop in the measured response relative to a control, in per cent. Read a high inhibition as a response far below the control. With `C=CCOc1c(CNn2cnnc2S)cccc1OC` [YUKA1, 4-([2-(allyloxy)-3-methoxybenzyl]amino)-4H-1,2,4-triazole-3-thiol], the 50% inhibitory concentration (IC50) against His-FLAG-KDM6A (UTX) was over 50 µM; on full-length FLAG-KDM5A (AlphaScreen, 1 hour reaction, 0.05–50 μM compound), 2.66 µM; on FLAG-KDM5C (AlphaScreen), 7.12 µM. For the same molecule, at full-length FLAG-KDM5A, the “mode of inhibition with respect to Fe(II)” value is reported as “uncompetitive with respect to Fe(II)”. Also, the “change of IC50 over a 16-fold range of α-KG concentrations” value at full-length FLAG-KDM5A (150 nM H3K4me3 peptide, 50 μM Fe(II)) was “did not change significantly”. In addition, the figures for the inhibition at 2 µM against full-length FLAG-KDM5A (50 μM Fe(II)) and against full-length FLAG-KDM5A (low Fe(II)) were about 70% and about 25%, respectively. For the same molecule, on full-length FLAG-KDM5A (5 μM Fe(II)), the “enzyme inhibition at low Fe(II)” value was “too weak to generate robust IC50 curves”. The “effect of catalase on inhibitory potency against KDM5A” value on full-length FLAG-KDM5A (0.01 mg/ml catalase) was “did not affect”. Further, the “proliferation relative to DMSO-treated cells” value in the experiment on HeLa cells was “less than half of DMSO-treated cells”. The cell proliferation result is recorded as “did not hinder cell proliferation” in the experiment with MCF10A cells and “decreased cell proliferation” with ZR-75-1 cells. Besides, the “global H3K4me3 levels” value in experiment [1] was “increased global H3K4me3 levels”. In addition, the H3K4 methylation entry in experiment [2] was “only minor changes”. In addition, at FLAG-KDM5C, the “fold less active against KDM5C (than KDM5A)” value is reported as ~ 3 fold.
